Laboratory results: the NIST ThermoML archive (doi:10.1021/je900550v)
± gives the expanded uncertainty stated by the source.

Settings: 101.33 kPa, Liquid; for speed of sound: Pulse-echo method; for mass density: Vibrating tube method

CCCCC(=O)[O-].C[NH2+]CCO [2-hydroxy-N-methylethanaminium pentanoate]
Settings	mass density [kg/m3]	speed of sound [m/s]	viscosity [mPa·s]
278.15 K	1029.68 ± 2.2	1616.6 ± 2.1	–
278.4 K	1029.52 ± 2.2	1615.6 ± 2.1	–
278.65 K	1029.35 ± 2.2	1614.7 ± 2.1	–
278.9 K	1029.18 ± 2.2	1613.8 ± 2.1	–
279.15 K	1029.01 ± 2.2	1612.8 ± 2.1	–
279.4 K	1028.85 ± 2.2	1611.9 ± 2.1	–
279.65 K	1028.68 ± 2.2	1611 ± 2.1	–
279.9 K	1028.51 ± 2.2	1610.1 ± 2.1	–
280.15 K	1028.35 ± 2.2	1609.1 ± 2.1	–
280.4 K	1028.18 ± 2.2	1608.2 ± 2.1	–
280.65 K	1028.01 ± 2.2	1607.3 ± 2.1	–
280.9 K	1027.85 ± 2.2	1606.4 ± 2.1	–
281.15 K	1027.68 ± 2.2	1605.5 ± 2.1	–
281.4 K	1027.51 ± 2.2	1604.6 ± 2.1	–
281.65 K	1027.34 ± 2.2	1603.7 ± 2.1	–
281.9 K	1027.18 ± 2.2	1602.8 ± 2.1	–
282.15 K	1027.01 ± 2.2	1601.9 ± 2.1	–
282.4 K	1026.84 ± 2.2	1601 ± 2.1	–
282.65 K	1026.67 ± 2.2	1600.1 ± 2.1	–
282.9 K	1026.51 ± 2.2	1599.2 ± 2.1	–
283.15 K	1026.34 ± 2.2	1598.3 ± 2.1	–
283.4 K	1026.17 ± 2.2	1597.5 ± 2.1	–
283.65 K	1026.01 ± 2.2	1596.6 ± 2.1	–
283.9 K	1025.84 ± 2.2	1595.7 ± 2.1	–
284.15 K	1025.67 ± 2.2	1594.8 ± 2.1	–
284.4 K	1025.5 ± 2.2	1593.9 ± 2.1	–
284.65 K	1025.34 ± 2.2	1593.1 ± 2.1	–
284.9 K	1025.17 ± 2.2	1592.2 ± 2.1	–
285.15 K	1025 ± 2.2	1591.3 ± 2.1	–
285.4 K	1024.83 ± 2.2	1590.5 ± 2.1	–
285.65 K	1024.66 ± 2.2	1589.6 ± 2.1	–
285.9 K	1024.5 ± 2.2	1588.8 ± 2.1	–
286.15 K	1024.33 ± 2.2	1587.9 ± 2.1	–
286.4 K	1024.16 ± 2.2	1587.1 ± 2.1	–
286.65 K	1023.99 ± 2.2	1586.2 ± 2.1	–
286.9 K	1023.83 ± 2.2	1585.4 ± 2.1	–
287.15 K	1023.66 ± 2.2	1584.5 ± 2.1	–
287.4 K	1023.49 ± 2.2	1583.7 ± 2.1	–
287.65 K	1023.32 ± 2.2	1582.8 ± 2.1	–
287.9 K	1023.15 ± 2.2	1582 ± 2.1	–
288.15 K	1022.99 ± 2.2	1581.2 ± 2.1	450.93 ± 67
288.4 K	1022.82 ± 2.2	1580.3 ± 2.1	–
288.65 K	1022.65 ± 2.2	1579.5 ± 2.1	–
288.9 K	1022.48 ± 2.2	1578.7 ± 2.1	–
289.15 K	1022.31 ± 2.2	1577.8 ± 2.1	–
289.4 K	1022.14 ± 2.2	1577 ± 2.1	–
289.65 K	1021.97 ± 2.2	1576.2 ± 2.1	–
289.9 K	1021.81 ± 2.2	1575.3 ± 2.1	–
290.15 K	1021.64 ± 2.2	1574.5 ± 2.1	–
290.4 K	1021.47 ± 2.2	1573.7 ± 2.1	–
290.65 K	1021.3 ± 2.2	1572.9 ± 2.1	368.78 ± 50
290.9 K	1021.13 ± 2.2	1572 ± 2.1	–
291.15 K	1020.96 ± 2.2	1571.2 ± 2.1	–
291.4 K	1020.79 ± 2.2	1570.4 ± 2.1	–
291.65 K	1020.62 ± 2.2	1569.6 ± 2.1	–
291.9 K	1020.45 ± 2.2	1568.8 ± 2.1	–
292.15 K	1020.28 ± 2.2	1568 ± 2.1	–
292.4 K	1020.12 ± 2.2	1567.2 ± 2.1	–
292.65 K	1019.95 ± 2.2	1566.3 ± 2.1	–
292.9 K	1019.78 ± 2.2	1565.5 ± 2.1	–
293.15 K	1019.61 ± 2.2	1564.7 ± 2.1	319.63 ± 40
293.4 K	1019.44 ± 2.2	1563.9 ± 2.1	–
293.65 K	1019.27 ± 2.2	1563.1 ± 2.1	–
293.9 K	1019.1 ± 2.2	1562.3 ± 2.1	–
294.15 K	1018.93 ± 2.2	1561.5 ± 2.1	–
294.4 K	1018.76 ± 2.2	1560.7 ± 2.1	–
294.65 K	1018.59 ± 2.2	1559.9 ± 2.1	–
294.9 K	1018.42 ± 2.2	1559.1 ± 2.1	–
295.15 K	1018.25 ± 2.2	1558.3 ± 2.1	–
295.4 K	1018.08 ± 2.2	1557.5 ± 2.1	–
295.65 K	1017.91 ± 2.2	1556.7 ± 2.1	273.03 ± 32
295.9 K	1017.74 ± 2.2	1555.9 ± 2.1	–
296.15 K	1017.57 ± 2.2	1555.1 ± 2.1	–
296.4 K	1017.4 ± 2.2	1554.3 ± 2.1	–
296.65 K	1017.23 ± 2.2	1553.5 ± 2.1	–
296.9 K	1017.06 ± 2.2	1552.7 ± 2.1	–
297.15 K	1016.89 ± 2.2	1551.9 ± 2.1	–
297.4 K	1016.72 ± 2.2	1551.1 ± 2.1	–
297.65 K	1016.55 ± 2.2	1550.3 ± 2.1	–
297.9 K	1016.38 ± 2.2	1549.6 ± 2.1	–
298.15 K	1016.21 ± 2.2	1548.8 ± 2.1	234.44 ± 25
298.4 K	1016.03 ± 2.2	1548 ± 2.1	–
298.65 K	1015.86 ± 2.2	1547.2 ± 2.1	–
298.9 K	1015.69 ± 2.2	1546.4 ± 2.1	–
299.15 K	1015.52 ± 2.2	1545.6 ± 2.1	–
299.4 K	1015.35 ± 2.2	1544.8 ± 2.1	–
299.65 K	1015.19 ± 2.2	1544 ± 2.1	–
299.9 K	1015.02 ± 2.2	1543.3 ± 2.1	–
300.15 K	1014.85 ± 2.2	1542.5 ± 2.1	–
300.4 K	1014.69 ± 2.2	1541.7 ± 2.1	–
300.65 K	1014.52 ± 2.2	1540.9 ± 2.1	205.32 ± 20
300.9 K	1014.36 ± 2.2	1540.1 ± 2.1	–
301.15 K	1014.19 ± 2.2	1539.3 ± 2.1	–
301.4 K	1014.03 ± 2.2	1538.5 ± 2.1	–
301.65 K	1013.86 ± 2.1	1537.8 ± 2.1	–
301.9 K	1013.7 ± 2.1	1537 ± 2.1	–
302.15 K	1013.53 ± 2.1	1536.2 ± 2.1	–
302.4 K	1013.36 ± 2.1	1535.4 ± 2.1	–
302.65 K	1013.2 ± 2.1	1534.6 ± 2.1	–
302.9 K	1013.03 ± 2.1	1533.9 ± 2.1	–
303.15 K	1012.86 ± 2.1	1533.1 ± 2.1	175.84 ± 15
303.4 K	1012.7 ± 2.1	1532.3 ± 2.1	–
303.65 K	1012.53 ± 2.1	1531.5 ± 2.1	–
303.9 K	1012.37 ± 2.1	1530.7 ± 2.1	–
304.15 K	1012.2 ± 2.1	1530 ± 2.1	–
304.4 K	1012.03 ± 2.1	1529.2 ± 2.1	–
304.65 K	1011.87 ± 2.1	1528.4 ± 2.1	–
304.91 K	1011.7 ± 2.1	1527.6 ± 2.1	–
305.15 K	1011.53 ± 2.1	1526.8 ± 2.1	–
305.4 K	1011.37 ± 2.1	1526.1 ± 2.1	–
305.65 K	1011.19 ± 2.1	1525.3 ± 2.1	147.42 ± 11
305.9 K	1011.03 ± 2.1	1524.5 ± 2.1	–
306.15 K	1010.86 ± 2.1	1523.8 ± 2.1	–
306.4 K	1010.69 ± 2.1	1523 ± 2.1	–
306.65 K	1010.52 ± 2.1	1522.2 ± 2.1	–
306.9 K	1010.36 ± 2.1	1521.5 ± 2.1	–
307.15 K	1010.19 ± 2.1	1520.7 ± 2.1	–
307.4 K	1010.02 ± 2.1	1519.9 ± 2.1	–
307.65 K	1009.85 ± 2.1	1519.1 ± 2.1	–
307.9 K	1009.68 ± 2.1	1518.4 ± 2.1	–
